Data on two compounds can be found in paper PMC12951562, “SH2scan: Mapping SH2 Domain-Ligand Binding Selectivity for Inhibitors and Degraders” (Journal of Medicinal Chemistry, 2026).

Experiment in all cases: biochemical
Common to all, as to format: binding

In one experiment the target is T1, ABL2 (Homo sapiens, UniProt P42684).
T1 construct: the DNA-tagged SH2 domain concentrations used in this study were <0.1 nM; made in house; host or cells: HEK293 (transient transfection; unpurified extract)
T1 sequence (P42684 173-263 limits assumed): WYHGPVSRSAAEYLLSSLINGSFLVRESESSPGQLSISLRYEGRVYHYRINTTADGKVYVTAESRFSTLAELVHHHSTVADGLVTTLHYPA
As to conditions: primary screen, 10 μM; read-out: percent of DMSO vehicle control.

The target in another experiment is T2, CSK (Homo sapiens, UniProt P41240).
T2 construct: the DNA-tagged SH2 domain concentrations used in this study were <0.1 nM; made in house; host or cells: HEK293 (transient transfection; unpurified extract)
T2 sequence (P41240 82-171 limits assumed): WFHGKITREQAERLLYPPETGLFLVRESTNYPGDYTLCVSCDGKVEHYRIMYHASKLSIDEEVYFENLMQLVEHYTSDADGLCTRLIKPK
As to conditions: primary screen, 10 μM.

A further experiment addresses T3, PIK3R1(SH2dom.C-term.) (Homo sapiens, UniProt P27986).
T3 construct: SH2dom.C-term. denotes SH2 domain closest to C-terminus of protein; made in house; host or cells: HEK293 (transient transfection, unpurified extract)
As to conditions: for remaining activity at 10 µM: primary screen, read-out: percent of DMSO vehicle control.

The target in another experiment is T4, SRMS (Homo sapiens, UniProt Q9H3Y6).
T4 construct: made in house; host or cells: HEK293 (transient transfection), unpurified extract
T4 sequence (Q9H3Y6 whole entry): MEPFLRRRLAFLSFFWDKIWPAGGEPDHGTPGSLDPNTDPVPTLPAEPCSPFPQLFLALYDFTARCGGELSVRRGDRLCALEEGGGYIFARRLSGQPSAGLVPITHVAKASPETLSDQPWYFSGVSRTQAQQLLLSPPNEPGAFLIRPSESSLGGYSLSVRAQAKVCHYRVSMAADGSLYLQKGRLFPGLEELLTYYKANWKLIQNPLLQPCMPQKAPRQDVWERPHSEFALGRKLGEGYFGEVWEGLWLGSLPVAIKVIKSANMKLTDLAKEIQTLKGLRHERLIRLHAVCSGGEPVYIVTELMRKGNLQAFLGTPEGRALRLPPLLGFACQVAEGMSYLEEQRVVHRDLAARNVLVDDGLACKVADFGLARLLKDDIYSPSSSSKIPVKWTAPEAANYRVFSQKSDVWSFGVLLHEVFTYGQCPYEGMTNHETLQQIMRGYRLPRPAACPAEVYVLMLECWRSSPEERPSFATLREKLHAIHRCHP
As to conditions: for KD: dose-response; for remaining activity at 10 µM: primary screen, read-out: percent of DMSO vehicle control.

The next experiment deals with T5, TXK (Homo sapiens, UniProt P42681).
T5 construct: made in house; host or cells: HEK293 (transient transfection), unpurified extract
T5 sequence (P42681 1-527): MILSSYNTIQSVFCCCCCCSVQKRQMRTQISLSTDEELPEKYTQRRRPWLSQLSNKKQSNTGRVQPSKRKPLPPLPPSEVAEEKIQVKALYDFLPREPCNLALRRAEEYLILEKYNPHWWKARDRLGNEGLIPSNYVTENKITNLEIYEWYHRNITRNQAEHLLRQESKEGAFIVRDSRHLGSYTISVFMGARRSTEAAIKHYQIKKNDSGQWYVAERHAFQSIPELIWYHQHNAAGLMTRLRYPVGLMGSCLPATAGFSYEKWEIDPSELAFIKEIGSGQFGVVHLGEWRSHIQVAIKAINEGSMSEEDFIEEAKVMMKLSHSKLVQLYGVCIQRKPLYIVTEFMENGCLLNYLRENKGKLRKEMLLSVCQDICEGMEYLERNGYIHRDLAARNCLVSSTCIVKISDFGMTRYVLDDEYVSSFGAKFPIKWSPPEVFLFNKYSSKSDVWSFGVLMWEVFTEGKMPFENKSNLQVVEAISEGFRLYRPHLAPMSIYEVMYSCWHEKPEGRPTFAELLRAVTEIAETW
As to conditions: primary screen, 10 μM; read-out: percent of DMSO vehicle control.

Another experiment has as its target T6, SH2D1B (Homo sapiens, UniProt O14796).
T6 construct: made in house; host or cells: HEK293 (transient transfection), unpurified extract
T6 sequence (O14796 1-132): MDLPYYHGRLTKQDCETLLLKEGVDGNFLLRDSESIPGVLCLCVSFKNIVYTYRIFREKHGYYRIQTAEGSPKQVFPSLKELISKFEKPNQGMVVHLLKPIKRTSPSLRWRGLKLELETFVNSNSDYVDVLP
As to conditions: primary screen, 10 μM; read-out: percent of DMSO vehicle control.

For a further experiment, the target named is T7, ITK (Homo sapiens, UniProt Q08881).
T7 construct: the DNA-tagged SH2 domain concentrations used in this study were <0.1 nM; made in house; host or cells: HEK293 (transient transfection, unpurified extract)
T7 sequence (Q08881 239-338 limits assumed): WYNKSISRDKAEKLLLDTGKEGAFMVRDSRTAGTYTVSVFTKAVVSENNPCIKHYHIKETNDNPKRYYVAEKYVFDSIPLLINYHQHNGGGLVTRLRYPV
As to conditions: for percent of DMSO vehicle control: primary screen, 10 μM.

The target in the next experiment is T8, SOCS6 (Homo sapiens, UniProt O14544).
T8 construct: made in house; host or cells: HEK293 (transient transfection), unpurified extract
T8 sequence (O14544 1-535): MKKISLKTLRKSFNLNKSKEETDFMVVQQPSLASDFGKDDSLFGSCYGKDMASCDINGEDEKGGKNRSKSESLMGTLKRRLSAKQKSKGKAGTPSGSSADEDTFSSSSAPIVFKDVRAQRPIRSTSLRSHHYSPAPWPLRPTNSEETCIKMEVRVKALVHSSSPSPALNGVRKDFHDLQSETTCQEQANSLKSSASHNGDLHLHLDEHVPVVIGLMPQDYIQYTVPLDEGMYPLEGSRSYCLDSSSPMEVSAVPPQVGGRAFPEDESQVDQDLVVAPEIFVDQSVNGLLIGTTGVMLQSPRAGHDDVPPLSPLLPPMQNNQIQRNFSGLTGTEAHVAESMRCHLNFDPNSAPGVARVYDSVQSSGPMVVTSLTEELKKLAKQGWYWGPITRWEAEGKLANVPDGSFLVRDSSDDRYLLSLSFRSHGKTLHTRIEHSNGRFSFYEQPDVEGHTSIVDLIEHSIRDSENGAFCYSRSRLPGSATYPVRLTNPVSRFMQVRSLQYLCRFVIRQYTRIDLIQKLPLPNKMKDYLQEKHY
As to conditions: primary screen, 10 μM; read-out: percent of DMSO vehicle control.

The target of another experiment is T9, RASA1(SH2dom.N-term.) (Homo sapiens, UniProt P20936).
T9 construct: SH2dom.N-term. denotes SH2 domain closest to N-terminus of protein; made in house; host or cells: HEK293 (transient transfection), unpurified extract
T9 sequence (P20936 181-272 limits assumed): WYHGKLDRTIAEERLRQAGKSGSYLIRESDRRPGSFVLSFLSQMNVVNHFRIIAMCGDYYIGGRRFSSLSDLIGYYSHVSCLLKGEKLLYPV
As to conditions: primary screen, 10 μM; read-out: percent of DMSO vehicle control.

For the next experiment, the target named is T10, SOCS7 (Homo sapiens, UniProt O14512).
T10 construct: made in house; host or cells: HEK293 (transient transfection), unpurified extract
T10 sequence (O14512 1-581): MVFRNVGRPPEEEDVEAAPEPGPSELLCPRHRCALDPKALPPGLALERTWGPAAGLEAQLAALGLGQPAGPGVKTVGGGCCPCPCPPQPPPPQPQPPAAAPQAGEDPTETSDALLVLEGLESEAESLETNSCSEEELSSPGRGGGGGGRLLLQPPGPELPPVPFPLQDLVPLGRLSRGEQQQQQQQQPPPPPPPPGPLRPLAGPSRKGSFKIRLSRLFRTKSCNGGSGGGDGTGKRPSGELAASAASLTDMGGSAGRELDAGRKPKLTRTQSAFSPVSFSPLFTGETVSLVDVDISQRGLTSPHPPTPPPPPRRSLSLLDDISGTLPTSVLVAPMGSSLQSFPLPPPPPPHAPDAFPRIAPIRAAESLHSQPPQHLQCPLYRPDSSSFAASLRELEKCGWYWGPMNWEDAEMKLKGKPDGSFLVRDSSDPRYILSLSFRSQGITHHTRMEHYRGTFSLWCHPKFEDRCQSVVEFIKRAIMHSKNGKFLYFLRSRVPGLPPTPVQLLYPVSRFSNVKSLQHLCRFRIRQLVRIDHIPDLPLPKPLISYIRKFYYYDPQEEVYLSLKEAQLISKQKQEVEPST
As to conditions: primary screen, 10 μM; read-out: percent of DMSO vehicle control.

T3 sequence (P27986 624-718 limits assumed): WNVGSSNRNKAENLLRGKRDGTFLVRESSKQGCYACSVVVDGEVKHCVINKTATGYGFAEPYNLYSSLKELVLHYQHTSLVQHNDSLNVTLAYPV

For the compound `CC(C)(C)[C@H](NC(=O)/C=C/c1ccc(OP(=O)(O)O)cc1)C(=O)N1CCC[C@H]1C(=O)N(c1ccccc1)c1ccc(I)cc1` [STAT6-IN-3], the remaining activity at 10 µM was found to be 108 ± 3.5% on ABL2; 32.6 ± 4.4% at PIK3R1(SH2dom.C-term.); 8.5 ± 53.2% on SRMS; 85.4 ± 12.9% on TXK; 46 ± 22.7% at SH2D1B; 90.2 ± 12.1% on SOCS6. Further, the remaining activity at 10 µM at RASA1(SH2dom.N-term.) amounted to 81.7 ± 8.5%; at SOCS7 it was 50.9 ± 16.4%. Moreover, the “percent of DMSO vehicle control” value on CSK is recorded as 65.2±5.7%; at ITK it was 0±54.7%. The equilibrium dissociation constant (Kd) on PIK3R1(SH2dom.C-term.) (dose-response, read-out: KD) turned out to be 3 ± 0.73 µM. Further, the KD result on SRMS is recorded as “No Hit”.

Turning to `O=C(COc1ccc2cc(C(=O)Nc3ccccc3)ccc2c1)NCc1ccc(OP(=O)(O)O)c(OP(=O)(O)O)c1` [Stafib-1], the remaining activity at 10 µM at ABL2 turned out to be 106%; on PIK3R1(SH2dom.C-term.) it was 85.3 ± 16.8%; on SRMS, 8.9 ± 56.2%; on TXK it was 144%; on SH2D1B, 62.9 ± 9.5%; at SOCS6, 96.9 ± 12%. Moreover, the results for the remaining activity at 10 µM on RASA1(SH2dom.N-term.) and at SOCS7 were 71.3 ± 8.8% and 81 ± 17.8%, respectively. Further, the “percent of DMSO vehicle control” value at CSK amounted to 111.7±5.5%; on ITK, 0±61.0%. Further, the KD entry on SRMS and at ITK (dose-response) was “No Hit” throughout.

The Kd is the concentration at which binding is half-saturated.
